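Following 48 hours of exposure in 96-well plates, responses at five concentrations were used to interpolate endpoints linearly. GI50 marks 50% less growth.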 The source made the active and inactive calls. No stated cut-off is given here; in the data, active = GI50 up to about 1.1 µM and inactive = higher.
Assays:
Test in all cases: NCI tumour cell line growth inhibition, 48 h
[1] = test system: 786-0
[2] = test system: A549
[3] = test system: ACHN
[4] = test system: CAKI-1
[5] = test system: COLO 205
[6] = test system: DLD-1
[7] = test system: DMS-114
[8] = test system: DMS-273
[9] = test system: EKVX
[10] = test system: HCC 2998
[11] = test system: HCT-116
[12] = test system: HL-60
[13] = test system: HOP-18
[14] = test system: HOP-62
[15] = test system: HOP-92
[16] = test system: HT-29
[17] = test system: KM-20L2
[18] = test system: KM12
[19] = test system: LOX IMVI
[20] = test system: LXFL 529
[21] = test system: M14
[22] = test system: M19-MEL
[23] = test system: Malme-3M
[24] = test system: NCI-H226
[25] = test system: NCI-H23
[26] = test system: NCI-H460
[27] = test system: NCI-H522
[28] = test system: OVCAR-3
[29] = test system: OVCAR-4
[30] = test system: OVCAR-5
[31] = test system: OVCAR-8
[32] = test system: SF-268
[33] = test system: SF-295
[34] = test system: SF-539
[35] = test system: SK-MEL-28
[36] = test system: SK-MEL-2
[37] = test system: SK-MEL-5
[38] = test system: SN12C
[39] = test system: SNB-19
[40] = test system: SNB-75
[41] = test system: SNB-78
[42] = test system: SW-620
[43] = test system: TK-10
[44] = test system: U-251
[45] = test system: UACC-257
[46] = test system: UO-31
[47] = test system: XF498
[48] = test system: A498
[49] = test system: CCRF-CEM
[50] = test system: HCT-15
[51] = test system: IGROV-1
[52] = test system: K562
[53] = test system: MCF7
[54] = test system: MOLT-4
[55] = test system: NCI/ADR-RES
[56] = test system: RPMI-8226
[57] = test system: RXF 393
[58] = test system: SK-OV-3
[59] = test system: UACC-62

**Q.** For `[N-]=[N+]=N[C@H]1C[C@@H](CO)O[C@H]1n1cnc2c(N)ncnc21`, which GI50 [1] is on record?
**A.** Its GI50 is > 100 µM (inactive).

**Q.** And the GI50 [2]?
**A.** The GI50 was > 100 µM (inactive).

**Q.** And the GI50 [3]?
**A.** Its GI50 is > 100 µM (inactive).

**Q.** And the GI50 [4]?
**A.** Its GI50 is > 100 µM (inactive).

**Q.** What about the GI50 [5] of the same compound?
**A.** Its GI50 is > 100 µM (inactive).

**Q.** What about the GI50 [6] of the same compound?
**A.** Its GI50 is > 100 µM (inactive).

**Q.** And the GI50 [7]?
**A.** The GI50 was > 100 µM (inactive).

**Q.** And the GI50 [8]?
**A.** The GI50 was > 100 µM (inactive).

**Q.** What about the GI50 [9] of the same compound?
**A.** Its GI50 is 57.4 µM (inactive).

**Q.** What about the GI50 [10] of the same compound?
**A.** The GI50 was > 100 µM (inactive).

**Q.** And the GI50 [11]?
**A.** The GI50 was > 100 µM (inactive).

**Q.** What about the GI50 [12] of the same compound?
**A.** The GI50 was > 100 µM (inactive).

**Q.** And the GI50 [13]?
**A.** The GI50 was 0.202 µM (active).

**Q.** What about the GI50 [14] of the same compound?
**A.** The GI50 was > 100 µM (inactive).

**Q.** And the GI50 [15]?
**A.** Its GI50 is > 100 µM (inactive).

**Q.** And the GI50 [16]?
**A.** The GI50 was > 100 µM (inactive).

**Q.** And the GI50 [17]?
**A.** The GI50 was > 100 µM (inactive).

**Q.** And the GI50 [18]?
**A.** Its GI50 is > 100 µM (inactive).

**Q.** And the GI50 [19]?
**A.** Its GI50 is > 100 µM (inactive).

**Q.** And the GI50 [20]?
**A.** Its GI50 is > 100 µM (inactive).

**Q.** What about the GI50 [21] of the same compound?
**A.** Its GI50 is > 100 µM (inactive).

**Q.** And the GI50 [22]?
**A.** The GI50 was > 100 µM (inactive).

**Q.** What about the GI50 [23] of the same compound?
**A.** The GI50 was > 100 µM (inactive).

**Q.** What about the GI50 [24] of the same compound?
**A.** The GI50 was > 100 µM (inactive).

**Q.** And the GI50 [25]?
**A.** Its GI50 is > 100 µM (inactive).

**Q.** And the GI50 [26]?
**A.** The GI50 was > 100 µM (inactive).

**Q.** And the GI50 [27]?
**A.** Its GI50 is > 100 µM (inactive).

**Q.** What about the GI50 [28] of the same compound?
**A.** The GI50 was > 100 µM (inactive).

**Q.** And the GI50 [29]?
**A.** Its GI50 is > 100 µM (inactive).

**Q.** And the GI50 [30]?
**A.** The GI50 was > 100 µM (inactive).

**Q.** And the GI50 [31]?
**A.** The GI50 was > 100 µM (inactive).

**Q.** What about the GI50 [32] of the same compound?
**A.** The GI50 was > 100 µM (inactive).

**Q.** What about the GI50 [33] of the same compound?
**A.** Its GI50 is > 100 µM (inactive).

**Q.** What about the GI50 [34] of the same compound?
**A.** Its GI50 is > 100 µM (inactive).

**Q.** What about the GI50 [35] of the same compound?
**A.** The GI50 was > 100 µM (inactive).

**Q.** And the GI50 [36]?
**A.** Its GI50 is > 100 µM (inactive).

**Q.** What about the GI50 [37] of the same compound?
**A.** The GI50 was > 100 µM (inactive).

**Q.** And the GI50 [38]?
**A.** Its GI50 is > 100 µM (inactive).

**Q.** What about the GI50 [39] of the same compound?
**A.** The GI50 was > 100 µM (inactive).

**Q.** What about the GI50 [40] of the same compound?
**A.** The GI50 was > 100 µM (inactive).

**Q.** And the GI50 [41]?
**A.** Its GI50 is > 100 µM (inactive).

**Q.** What about the GI50 [42] of the same compound?
**A.** The GI50 was > 100 µM (inactive).

**Q.** And the GI50 [43]?
**A.** The GI50 was > 100 µM (inactive).

**Q.** And the GI50 [44]?
**A.** Its GI50 is > 100 µM (inactive).

**Q.** What about the GI50 [45] of the same compound?
**A.** Its GI50 is > 100 µM (inactive).

**Q.** And the GI50 [46]?
**A.** Its GI50 is > 100 µM (inactive).

**Q.** And the GI50 [47]?
**A.** Its GI50 is 31.2 µM (inactive).

**Q.** For `COC(=O)[C@]1(c2ccc(N(C)C)cc2OC)C[C@@H]2CCCN(CCc3c1[nH]c1ccccc31)C2`, which GI50 [48] is on record?
**A.** Its GI50 is 19 µM (inactive).

**Q.** What about the GI50 [2] of the same compound?
**A.** Its GI50 is 34.4 µM (inactive).

**Q.** What about the GI50 [4] of the same compound?
**A.** Its GI50 is 54.1 µM (inactive).

**Q.** And the GI50 [49]?
**A.** Its GI50 is 25 µM (inactive).

**Q.** What about the GI50 [5] of the same compound?
**A.** The GI50 was 13.8 µM (inactive).

**Q.** And the GI50 [6]?
**A.** The GI50 was 27.2 µM (inactive).

**Q.** What about the GI50 [7] of the same compound?
**A.** Its GI50 is 16.6 µM (inactive).

**Q.** What about the GI50 [8] of the same compound?
**A.** Its GI50 is 20.5 µM (inactive).

**Q.** What about the GI50 [9] of the same compound?
**A.** The GI50 was 22.3 µM (inactive).

**Q.** What about the GI50 [10] of the same compound?
**A.** The GI50 was 15.3 µM (inactive).

**Q.** What about the GI50 [11] of the same compound?
**A.** Its GI50 is 29.9 µM (inactive).

**Q.** And the GI50 [50]?
**A.** Its GI50 is 20.8 µM.

**Q.** What about the GI50 [12] of the same compound?
**A.** The GI50 was 11.7 µM (inactive).

**Q.** What about the GI50 [13] of the same compound?
**A.** Its GI50 is 24.1 µM (inactive).

**Q.** What about the GI50 [14] of the same compound?
**A.** Its GI50 is 30.3 µM (inactive).

**Q.** What about the GI50 [15] of the same compound?
**A.** Its GI50 is 10.7 µM (inactive).

**Q.** And the GI50 [16]?
**A.** The GI50 was 15 µM (inactive).

**Q.** And the GI50 [51]?
**A.** The GI50 was 20.2 µM (inactive).

**Q.** And the GI50 [52]?
**A.** The GI50 was 17.3 µM (inactive).

**Q.** What about the GI50 [17] of the same compound?
**A.** The GI50 was 17.1 µM (inactive).

**Q.** And the GI50 [18]?
**A.** The GI50 was 23.1 µM (inactive).

**Q.** And the GI50 [19]?
**A.** Its GI50 is > 43.7 µM (inactive).

**Q.** What about the GI50 [22] of the same compound?
**A.** The GI50 was 16.4 µM (inactive).

**Q.** What about the GI50 [53] of the same compound?
**A.** Its GI50 is 15.9 µM (inactive).

**Q.** What about the GI50 [54] of the same compound?
**A.** The GI50 was 31 µM (inactive).

**Q.** And the GI50 [23]?
**A.** Its GI50 is 15.9 µM (inactive).

**Q.** What about the GI50 [24] of the same compound?
**A.** Its GI50 is 17.4 µM (inactive).

**Q.** And the GI50 [25]?
**A.** The GI50 was 18.9 µM (inactive).

**Q.** And the GI50 [26]?
**A.** The GI50 was 16.7 µM (inactive).

**Q.** And the GI50 [27]?
**A.** Its GI50 is 17.4 µM (inactive).

**Q.** What about the GI50 [55] of the same compound?
**A.** The GI50 was 18.8 µM (inactive).

**Q.** What about the GI50 [28] of the same compound?
**A.** The GI50 was 18.5 µM (inactive).

**Q.** And the GI50 [29]?
**A.** The GI50 was 13.3 µM (inactive).

**Q.** And the GI50 [30]?
**A.** The GI50 was > 60.4 µM (inactive).

**Q.** What about the GI50 [31] of the same compound?
**A.** The GI50 was 24.9 µM (inactive).

**Q.** And the GI50 [56]?
**A.** The GI50 was 28.1 µM (inactive).

**Q.** And the GI50 [57]?
**A.** Its GI50 is 19.8 µM (inactive).

**Q.** And the GI50 [32]?
**A.** Its GI50 is 21.1 µM (inactive).

**Q.** And the GI50 [33]?
**A.** The GI50 was > 43.7 µM (inactive).

**Q.** And the GI50 [34]?
**A.** The GI50 was 20.5 µM (inactive).

**Q.** What about the GI50 [35] of the same compound?
**A.** The GI50 was 19.6 µM (inactive).

**Q.** And the GI50 [36]?
**A.** The GI50 was 20.3 µM (inactive).

**Q.** What about the GI50 [37] of the same compound?
**A.** Its GI50 is 17.2 µM (inactive).

**Q.** And the GI50 [58]?
**A.** The GI50 was > 47 µM (inactive).

**Q.** And the GI50 [38]?
**A.** Its GI50 is 19.3 µM (inactive).

**Q.** What about the GI50 [39] of the same compound?
**A.** Its GI50 is 74 µM (inactive).

**Q.** What about the GI50 [40] of the same compound?
**A.** Its GI50 is 12.4 µM (inactive).

**Q.** What about the GI50 [41] of the same compound?
**A.** Its GI50 is 31 µM (inactive).

**Q.** What about the GI50 [42] of the same compound?
**A.** The GI50 was 40.3 µM (inactive).

**Q.** And the GI50 [44]?
**A.** Its GI50 is 19.1 µM (inactive).

**Q.** And the GI50 [45]?
**A.** Its GI50 is 21 µM (inactive).

**Q.** What about the GI50 [59] of the same compound?
**A.** The GI50 was 18 µM (inactive).

**Q.** What about the GI50 [46] of the same compound?
**A.** The GI50 was 15.5 µM (inactive).

**Q.** What about the GI50 [47] of the same compound?
**A.** The GI50 was 18.7 µM (inactive).
